# Read-outs that look alike come from different tables or passages of the source.
# Columns and labels:
# [1] = test system: Streptococcus pneumoniae; assay: Susceptibility testing (MIC) Assay 1, broth microdilution; type: cell-based
# [2] = test system: Streptococcus pyogenes; assay: as above; type: cell-based; conditions: Streptococcus pyogenes, Streptococcus pyrgenes, in vivo strain; read-out: Spy MIC
# [3] = test system: Staphylococcus aureus; assay: as above; type: cell-based; conditions: Staphylococcus aureus
# [4] = test system: Escherichia coli; assay: Susceptibility testing (MIC) Assay 2, broth microdilution; type: cell-based; conditions: K12, read-out: Eco MIC
# [5] = test system: Klebsiella pneumoniae; assay: as above; type: cell-based; conditions: clinical isolate, mucoid, read-out: Kpn MIC
# [6] = test system: Pseudomonas aeruginosa; assay: as above; type: cell-based; conditions: PAO1, read-out: Pae MIC
# [7] = test system: Haemophilus influenzae; assay: as above; type: cell-based; conditions: ATCC51907, Haemophilus influenzae, ATCC 51907, in vivo strain, read-out: Hin MIC
# [8] = target: Escherichia coli DNA gyrase A/B tetramer (Escherichia coli (strain K12), UniProt P0AES4+P0AES6); assay: DNA gyrase supercoiling activity fluorescence polarisation assay; type: biochemical; conditions: Eco Gyr FP Mean IC50, E. coli DNA gyrase supercoiling, 0.3 mM ATP
# Procedure, shortened: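 Relaxed triplex-forming plasmid (130 micrograms/mL) supercoiled by 5 nM gyrase A/B tetramer in Tris-HCl pH 7.5 buffer with 4 mM MgCl2 and 0.3 mM ATP, ~30 min, ambient temperature. Quenched with 5′-BODIPY-FL triplex probe at pH 3.5; fluorescence anisotropy read after 60 min. IC50 by nonlinear regression against two control reactions.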
# [9] = in vivo strain (footnote b), read-out: Spn(b) MIC
# [10] = in vivo strain (footnote c), read-out: Spn(c) MIC
# [11] = Staphylococcus aureus in vivo strain, MSQS, read-out: Sau(d) MIC
# [12] = in vivo strain, MRQR, read-out: Sau(e) MIC
compound,measurement,setting,value
"C[C@@H]1CN2c3c(cc4c(N5C(=O)OC[C@@H]5c5ccncc5)noc4c3F)CC3(C(=O)NC(=O)NC3=O)[C@H]2[C@H](C)O1 [Example 58, (2R,4S,4aS)-11-fluoro-2,4-dimethyl-8-((S)-2-oxo-4-(pyridin-4-yl)oxazolidin-3-yl)-2,4,4a,6-tetrahydro-1H,1′H-spiro[isoxazolo[4,5-g][1,4]oxazino[4,3-a]quinoline-5,5′-pyrimidine]-2′,4′,6′(3′H)-trione]",MIC,[1]; [9],50 µM
same,MIC,[1]; [10],25 µM
same,MIC,[2],12 µM
same,MIC,[3]; [11],12 µM
same,MIC,[3]; [12],50 µM
same,MIC,"[3]; serum, read-out: Sau(f) MIC",50 µM
same,MIC,[4],> 200 µM
same,MIC,[5],> 200 µM
same,MIC,[6],> 200 µM
same,MIC,[7],6.2 µM
same,IC50,[8],1.5 µM
CO[C@H](C)[C@H]1COC(=O)N1c1noc2c(F)c3c(cc12)CC1(C(=O)NC(=O)NC1=O)[C@H]1[C@H](C)O[C@H](C)CN31 [Example 59],MIC,[1]; [9],1.6 µM
same,MIC,[1]; [10],1.6 µM
same,MIC,[2],1.6 µM
same,MIC,[3]; [11],0.78 µM
same,MIC,[3]; [12],1.6 µM
same,MIC,"[3]; serum, read-out: Sau(f) MIC",3.1 µM
same,MIC,[4],100 µM
same,MIC,[5],> 200 µM
same,MIC,[6],> 200 µM
same,MIC,[7],1.6 µM
same,IC50,[8],0.86 µM
CO[C@@H](C)[C@@H]1COC(=O)N1c1noc2c(F)c3c(cc12)CC1(C(=O)NC(=O)NC1=O)[C@H]1[C@H](C)O[C@H](C)CN31 [Example 60],MIC,[1]; [9],1.6 µM
same,MIC,[1]; [10],1.6 µM
same,MIC,[2],1.6 µM
same,MIC,[3]; [11],0.78 µM
same,MIC,[3]; [12],1.6 µM
same,MIC,"[3]; serum, read-out: Sau(f) MIC",1.6 µM
same,MIC,[4],100 µM
same,MIC,[5],> 200 µM
same,MIC,[6],> 200 µM
same,MIC,[7],1.6 µM
same,IC50,[8],0.95 µM
"C[C@@H]1CN2c3c(cc4c(N5C(=O)OC[C@H]5c5cnccn5)noc4c3F)CC3(C(=O)NC(=O)NC3=O)[C@H]2[C@H](C)O1 [Example 61, (2R,4S,4aS)-11-Fluoro-2,4-dimethyl-8-((R)-2-oxo-4-(pyrazin-2-yl)oxazolidin-3-yl)-2,4,4a,6-tetrahydro-1H,1′H-spiro[isoxazolo[4,5-g][1,4]oxazino[4,3-a]quinoline-5,5′-pyrimidine]-2′,4′,6′(3′H)-trione]",MIC,[1]; [9],0.78 µM
same,MIC,[1]; [10],0.78 µM
same,MIC,[2],0.78 µM
same,MIC,[3]; [11],0.78 µM
same,MIC,[3]; [12],3.1 µM
same,MIC,"[3]; serum, read-out: Sau(f) MIC",1.6 µM
same,MIC,[4],100 µM
same,MIC,[5],> 200 µM
same,MIC,[6],> 200 µM
same,MIC,[7],< 0.2 µM
same,IC50,[8],0.34 µM
"C[C@@H]1CN2c3c(cc4c(N5C(=O)OC[C@@H]5c5cnccn5)noc4c3F)CC3(C(=O)NC(=O)NC3=O)[C@H]2[C@H](C)O1 [Example 62, (2R,4S,4aS)-11-fluoro-2,4-dimethyl-8-((S)-2-oxo-4-(pyrazin-2-yl)oxazolidin-3-yl)-2,4,4a,6-tetrahydro-1H,1′H-spiro[isoxazolo[4,5-g][1,4]oxazino[4,3-a]quinoline-5,5′-pyrimidine]-2′,4′,6′(3′H)-trione]",MIC,[1]; [9],6.2 µM
same,MIC,[1]; [10],3.1 µM
same,MIC,[2],3.1 µM
same,MIC,[3]; [11],3.1 µM
same,MIC,[3]; [12],6.2 µM
same,MIC,"[3]; serum, read-out: Sau(f) MIC",6.2 µM
same,MIC,[4],> 200 µM
same,MIC,[5],> 200 µM
same,MIC,[6],> 200 µM
same,MIC,[7],3.1 µM
same,IC50,[8],1.4 µM
"C[C@@H]1CN2c3c(cc4c(N5C(=O)OC[C@H]5c5ncccn5)noc4c3F)CC3(C(=O)NC(=O)NC3=O)[C@H]2[C@H](C)O1 [Example 63, (2R,4S,4aS)-11-Fluoro-2,4-dimethyl-8-((R)-2-oxo-4-(pyrimidin-2-yl)oxazolidin-3-yl)-2,4,4a,6-tetrahydro-1H,1′H-spiro[isoxazolo[4,5-g][1,4]oxazino[4,3-a]quinoline-5,5′-pyrimidine]-2′,4′,6′(3′H)-trione]",MIC,[1]; [9],0.39 µM
same,MIC,[1]; [10],0.39 µM
same,MIC,[2],0.39 µM
same,MIC,[3]; [11],0.78 µM
same,MIC,[3]; [12],3.1 µM
same,MIC,"[3]; serum, read-out: Sau(f) MIC",> 200 µM
same,MIC,[4],100 µM
same,MIC,[5],> 200 µM
same,MIC,[6],> 200 µM
same,MIC,[7],0.39 µM
same,IC50,[8],0.38 µM
"C[C@@H]1CN2c3c(cc4c(N5C(=O)OC[C@@H]5c5ncccn5)noc4c3F)CC3(C(=O)NC(=O)NC3=O)[C@H]2[C@H](C)O1 [Example 64, (2R,4S,4aS)-11-fluoro-2,4-dimethyl-8-((S)-2-oxo-4-(pyrimidin-2-yl)oxazolidin-3-yl)-2,4,4a,6-tetrahydro-1H,1′H-spiro[isoxazolo[4,5-g][1,4]oxazino[4,3-a]quinoline-5,5′-pyrimidine]-2′,4′,6′(3′H)-trione]",MIC,[1]; [9],12 µM
same,MIC,[1]; [10],6.2 µM
same,MIC,[2],6.2 µM
same,MIC,[3]; [11],6.2 µM
same,MIC,[3]; [12],25 µM
same,MIC,"[3]; serum, read-out: Sau(f) MIC",25 µM
same,MIC,[4],> 200 µM
same,MIC,[5],> 200 µM
same,MIC,[6],> 200 µM
same,MIC,[7],3.1 µM
same,IC50,[8],> 2.1 µM
C#C[C@H]1COC(=O)N1c1noc2c(F)c3c(cc12)CC1(C(=O)NC(=O)NC1=O)[C@H]1[C@H](C)O[C@H](C)CN31 [Example 65],MIC,[1]; [9],0.78 µM
same,MIC,[1]; [10],1.6 µM
same,MIC,[2],0.78 µM
same,MIC,[3]; [11],0.39 µM
same,MIC,[3]; [12],1.6 µM
same,MIC,"[3]; serum, read-out: Sau(f) MIC",1.6 µM
same,MIC,[4],3.1 µM
same,MIC,[5],200 µM
same,MIC,[6],> 200 µM
same,MIC,[7],0.78 µM
same,IC50,[8],0.12 µM
"C[C@@H]1CN2c3c(cc4c(N5C(=O)OC[C@@H]5C)noc4c3Cl)CC3(C(=O)NC(=O)NC3=O)[C@H]2[C@H](C)O1 [Example 66, (2R,4S,4aS)-11-Chloro-2,4-dimethyl-8-((S)-4-methyl-2-oxooxazolidin-3-yl)-2,4,4a,6-tetrahydro-1H, 1′H-spiro[isoxazolo[4,5-g][1,4]oxazino[4,3-a]quinoline-5,5′-pyrimidine]-2′,4′,6′(3′H)-trione]",MIC,[1]; [9],0.39 µM
same,MIC,[1]; [10],0.78 µM
same,MIC,[2],0.39 µM
same,MIC,[3]; [11],0.39 µM
same,MIC,[3]; [12],0.78 µM
same,MIC,"[3]; serum, read-out: Sau(f) MIC",0.78 µM
same,MIC,[4],6.2 µM
same,MIC,[5],100 µM
same,MIC,[6],> 200 µM
same,MIC,[7],0.78 µM
same,IC50,[8],0.17 µM
"C[C@@H]1CN2c3c(cc4c(N5C(=O)OC[C@@H]5c5ncnn5C)noc4c3F)CC3(C(=O)NC(=O)NC3=O)[C@H]2[C@H](C)O1 [Example 68, (2R,4S,4aS)-11-Fluoro-2,4-dimethyl-8-((S)-4-(1-methyl-1H-1,2,4-triazol-5-yl)-2-oxooxazolidin-3-yl)-2,4,4a,6-tetrahydro-1H,1′H-spiro[isoxazolo[4,5-g][1,4]oxazino[4,3-a]quinoline-5,5′-pyrimidine]-2′,4′,6′(3′H)-trione]",MIC,[1]; [9],3.1 µM
same,MIC,[1]; [10],6.2 µM
same,MIC,[2],3.1 µM
same,MIC,[3]; [11],12 µM
same,MIC,[3]; [12],25 µM
same,MIC,"[3]; serum, read-out: Sau(f) MIC",12 µM
same,MIC,[4],200 µM
same,MIC,[5],> 200 µM
same,MIC,[6],> 200 µM
same,MIC,[7],1.6 µM
same,IC50,[8],0.22 µM
"C[C@@H]1CN2c3c(cc4c(N5C(=O)OC[C@H]5c5ncnn5C)noc4c3F)CC3(C(=O)NC(=O)NC3=O)[C@H]2[C@H](C)O1 [Example 69, (2R,4S,4aS)-11-Fluoro-2,4-dimethyl-8-((R)-4-(1-methyl-1H-1,2,4-triazol-5-yl)-2-oxooxazolidin-3-yl)-2,4,4a,6-tetrahydro-1H,1′H-spiro[isoxazolo[4,5-g][1,4]oxazino[4,3-a]quinoline-5,5′-pyrimidine]-2′,4′,6′(3′H)-trione]",MIC,[1]; [9],12 µM
same,MIC,[1]; [10],12 µM
same,MIC,[2],3.1 µM
same,MIC,[3]; [11],12 µM
same,MIC,[3]; [12],25 µM
same,MIC,"[3]; serum, read-out: Sau(f) MIC",12 µM
same,MIC,[4],> 200 µM
same,MIC,[5],> 200 µM
same,MIC,[6],> 200 µM
same,MIC,[7],3.1 µM
same,IC50,[8],0.6 µM
C[C@@H]1CN2c3c(cc4c(N5C(=O)OC[C@@H]5[C@H](C)O)noc4c3F)CC3(C(=O)NC(=O)NC3=O)[C@H]2[C@H](C)O1 [Example 70],MIC,[1]; [9],1.6 µM
same,MIC,[1]; [10],3.1 µM
same,MIC,[2],1.6 µM
same,MIC,[3]; [11],12 µM
same,MIC,[3]; [12],50 µM
same,MIC,"[3]; serum, read-out: Sau(f) MIC",25 µM
same,MIC,[4],200 µM
same,MIC,[5],> 200 µM
same,MIC,[6],> 200 µM
same,MIC,[7],1.6 µM
same,IC50,[8],0.61 µM
"C[C@@H]1CN2c3c(cc4c(N5C(=O)OC[C@@H]5CC#N)noc4c3F)CC3(C(=O)NC(=O)NC3=O)[C@H]2[C@H](C)O1 [Example 71, {(4S)-3-[(2R,4S,4aS)-11-Fluoro-2,4-dimethyl-2′,4′,6′-trioxo-1,1′,2,3′,4,4′,4a,6′-octahydro-2′H,6H-spiro[1,4-oxazino[4,3-a][1,2]oxazolo[4,5-g]quinoline-5,5′-pyrimidin]-8-yl]-2-oxo-1,3-oxazolidin-4-yl}acetonitrile]",MIC,[1]; [9],1.6 µM
same,MIC,[1]; [10],1.6 µM
same,MIC,[2],1.6 µM
same,MIC,[3]; [11],3.1 µM
same,MIC,[3]; [12],6.2 µM
same,MIC,"[3]; serum, read-out: Sau(f) MIC",3.1 µM
same,MIC,[4],50 µM
same,MIC,[5],> 200 µM
same,MIC,[6],> 200 µM
same,MIC,[7],1.6 µM
same,IC50,[8],0.16 µM
C[C@@H]1CN2c3c(cc4c(N5C(=O)OC[C@@H]5[C@@H](O)CO)noc4c3F)CC3(C(=O)NC(=O)NC3=O)[C@H]2[C@H](C)O1 [Example 72],MIC,[1]; [9],0.78 µM
same,MIC,[1]; [10],3.1 µM
same,MIC,[2],0.39 µM
same,MIC,[3]; [11],25 µM
same,MIC,[3]; [12],50 µM
same,MIC,"[3]; serum, read-out: Sau(f) MIC",25 µM
same,MIC,[4],> 200 µM
same,MIC,[5],> 200 µM
same,MIC,[6],> 200 µM
same,MIC,[7],3.1 µM
same,IC50,[8],0.29 µM
C[C@@H]1CN2c3c(cc4c(N5C(=O)OC[C@@H]5[C@H](O)CO)noc4c3F)CC3(C(=O)NC(=O)NC3=O)[C@H]2[C@H](C)O1 [Example 73],MIC,[1]; [9],0.78 µM
same,MIC,[1]; [10],3.1 µM
same,MIC,[2],0.78 µM
same,MIC,[3]; [11],25 µM
same,MIC,[3]; [12],100 µM
same,MIC,"[3]; serum, read-out: Sau(f) MIC",25 µM
same,MIC,[4],> 200 µM
same,MIC,[5],> 200 µM
same,MIC,[6],> 200 µM
same,MIC,[7],6.2 µM
same,IC50,[8],0.34 µM

# Source: patent publication US8889671B2, “Compounds and methods for treating bacterial infections” (AstraZeneca AB, priority 2013, dated 2014)
